Laboratory results reported in ChEMBL document CHEMBL1201862, “PubChem BioAssay data set” (2004).
One block for each compound: values may come before it. The source made the active and inactive calls.

Tests used:
Type in all cases: functional
[1] = target: T1, G-protein coupled receptor 35 (Homo sapiens, UniProt Q9HC97); test: SAR analysis of Agonists of the GPR35 Receptor using an Image-Based Assay - Set 3. [Related pubchem assays (depositor defined):AID1961, AID1965]
Cannabinoid receptor 1 [2] = target: T2, Cannabinoid receptor 1 (Homo sapiens, UniProt P21554); test: SAR analysis of agonists of the Cannabinoid Receptor 1 using an Image-Based Assay - Set 3. [Related pubchem assays (depositor defined):AID1961, AID1965]
T2 sequence (P21554 whole entry): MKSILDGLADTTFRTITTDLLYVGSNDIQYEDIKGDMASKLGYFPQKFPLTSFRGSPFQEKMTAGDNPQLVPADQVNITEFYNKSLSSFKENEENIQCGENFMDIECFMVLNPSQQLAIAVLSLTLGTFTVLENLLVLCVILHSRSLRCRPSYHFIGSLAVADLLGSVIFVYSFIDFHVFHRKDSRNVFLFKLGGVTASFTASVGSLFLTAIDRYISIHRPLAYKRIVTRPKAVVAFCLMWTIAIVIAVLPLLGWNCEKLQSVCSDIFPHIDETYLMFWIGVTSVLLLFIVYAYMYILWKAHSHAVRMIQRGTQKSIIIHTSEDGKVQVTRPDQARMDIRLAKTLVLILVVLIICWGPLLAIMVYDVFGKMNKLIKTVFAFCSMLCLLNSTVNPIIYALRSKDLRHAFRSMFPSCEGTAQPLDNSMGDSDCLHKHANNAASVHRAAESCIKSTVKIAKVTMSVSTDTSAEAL

Cannabinoid receptor 2 [3] = target: T3, Cannabinoid receptor 2 (Homo sapiens, UniProt P34972); test: SAR analysis of antagonists of the Cannabinoid Receptor 2 using an Image-Based Assay - Set 2. [Related pubchem assays (depositor defined):AID1961, AID1965]
T3 sequence (P34972 whole entry): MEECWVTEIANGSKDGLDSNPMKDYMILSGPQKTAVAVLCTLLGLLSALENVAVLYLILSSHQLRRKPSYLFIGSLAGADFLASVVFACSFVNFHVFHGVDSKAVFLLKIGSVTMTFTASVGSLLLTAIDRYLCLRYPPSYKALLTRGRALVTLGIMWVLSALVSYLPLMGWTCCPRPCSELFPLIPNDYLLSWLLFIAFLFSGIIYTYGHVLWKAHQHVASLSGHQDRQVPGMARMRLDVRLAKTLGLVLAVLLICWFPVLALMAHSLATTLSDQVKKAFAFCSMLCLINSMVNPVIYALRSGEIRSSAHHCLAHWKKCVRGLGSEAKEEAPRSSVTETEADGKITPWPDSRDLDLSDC

Cannabinoid receptor 1 [4] = target: T2, Cannabinoid receptor 1; test: SAR analysis of antagonists of the Cannabinoid Receptor 1 using an Image-Based Assay - Set 3. [Related pubchem assays (depositor defined):AID1961, AID1965]
[5] = target: T4, G-protein coupled receptor 55 (Homo sapiens, UniProt Q9Y2T6); test: SAR analysis of selective Agonists of GPR55 using an Image-Based Assay - Set 2. [Related pubchem assays (depositor defined):AID1961, AID1965]
T4 sequence (Q9Y2T6 whole entry): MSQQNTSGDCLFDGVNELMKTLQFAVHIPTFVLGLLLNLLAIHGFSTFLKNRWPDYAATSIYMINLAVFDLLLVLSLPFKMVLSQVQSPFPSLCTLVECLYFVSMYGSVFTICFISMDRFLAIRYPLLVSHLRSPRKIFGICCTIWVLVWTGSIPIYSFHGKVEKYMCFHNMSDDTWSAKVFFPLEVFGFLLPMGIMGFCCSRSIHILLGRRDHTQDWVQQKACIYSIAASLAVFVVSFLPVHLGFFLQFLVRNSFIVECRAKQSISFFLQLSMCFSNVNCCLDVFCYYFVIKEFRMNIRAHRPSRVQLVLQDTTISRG

[6] = target: T1, G-protein coupled receptor 35; test: SAR analysis of Antagonists of the GPR35 Receptor using an Image-Based Assay - Set 4. [Related pubchem assays (depositor defined):[…]]
Cannabinoid receptor 2 [7] = target: T3, Cannabinoid receptor 2; test: SAR analysis of agonists of the Cannabinoid Receptor 2 using an Image-Based Assay - Set 2. [Related pubchem assays (depositor defined):AID1961, AID1965]
[8] = target: T5, Short transient receptor potential channel 4 (Mus musculus, UniProt Q9QUQ5); test: TRPC4 positive allosteric modulators, dose response, cell-based, HEK293 TRPC4/mu-opioid, Fluo-4 calcium, EC20 DAMGO (AID 434941)
T5 sequence (Q9QUQ5 whole entry): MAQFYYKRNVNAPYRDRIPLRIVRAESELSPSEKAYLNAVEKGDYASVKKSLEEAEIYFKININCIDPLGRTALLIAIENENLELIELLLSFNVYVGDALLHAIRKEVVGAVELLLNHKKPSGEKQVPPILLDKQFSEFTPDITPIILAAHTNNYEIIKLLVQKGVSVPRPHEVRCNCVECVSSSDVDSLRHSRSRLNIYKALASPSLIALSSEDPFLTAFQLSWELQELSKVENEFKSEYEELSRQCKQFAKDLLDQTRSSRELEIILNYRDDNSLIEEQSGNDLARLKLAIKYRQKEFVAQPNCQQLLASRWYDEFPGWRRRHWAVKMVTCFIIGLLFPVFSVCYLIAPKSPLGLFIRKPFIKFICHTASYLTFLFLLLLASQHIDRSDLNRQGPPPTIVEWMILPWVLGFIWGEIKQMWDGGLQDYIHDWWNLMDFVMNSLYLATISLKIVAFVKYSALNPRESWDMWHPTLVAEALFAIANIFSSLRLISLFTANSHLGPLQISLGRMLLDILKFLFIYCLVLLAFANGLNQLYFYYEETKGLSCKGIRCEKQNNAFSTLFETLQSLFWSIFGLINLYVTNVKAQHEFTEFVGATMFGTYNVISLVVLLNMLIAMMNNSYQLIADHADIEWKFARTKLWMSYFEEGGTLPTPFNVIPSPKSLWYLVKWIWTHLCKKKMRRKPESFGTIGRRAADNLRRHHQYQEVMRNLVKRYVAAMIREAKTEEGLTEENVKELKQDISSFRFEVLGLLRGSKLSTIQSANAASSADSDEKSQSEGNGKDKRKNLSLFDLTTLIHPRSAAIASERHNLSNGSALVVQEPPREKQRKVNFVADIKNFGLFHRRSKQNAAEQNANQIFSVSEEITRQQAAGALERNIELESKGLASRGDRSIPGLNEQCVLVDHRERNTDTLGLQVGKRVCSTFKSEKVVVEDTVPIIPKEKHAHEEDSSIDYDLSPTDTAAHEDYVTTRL

[9] = cytotoxicity in HPDE-C7 cells, cell-based, fluorescence, HTS (AID 430); conditions: Homo sapiens
[10] = cytotoxicity in KRAS-transformed pancreatic duct cells, primary screen, cell-based, fluorescence, HTS (AID 431); conditions: Homo sapiens;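 note: cell line used: HPDE-C7K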
Coagulation factor XII = target: T6, Coagulation factor XII (Homo sapiens, UniProt P00748); test: FXIIa inhibitor potency, concentration-response, biochemical (AID 716)
T6 sequence (P00748 whole entry): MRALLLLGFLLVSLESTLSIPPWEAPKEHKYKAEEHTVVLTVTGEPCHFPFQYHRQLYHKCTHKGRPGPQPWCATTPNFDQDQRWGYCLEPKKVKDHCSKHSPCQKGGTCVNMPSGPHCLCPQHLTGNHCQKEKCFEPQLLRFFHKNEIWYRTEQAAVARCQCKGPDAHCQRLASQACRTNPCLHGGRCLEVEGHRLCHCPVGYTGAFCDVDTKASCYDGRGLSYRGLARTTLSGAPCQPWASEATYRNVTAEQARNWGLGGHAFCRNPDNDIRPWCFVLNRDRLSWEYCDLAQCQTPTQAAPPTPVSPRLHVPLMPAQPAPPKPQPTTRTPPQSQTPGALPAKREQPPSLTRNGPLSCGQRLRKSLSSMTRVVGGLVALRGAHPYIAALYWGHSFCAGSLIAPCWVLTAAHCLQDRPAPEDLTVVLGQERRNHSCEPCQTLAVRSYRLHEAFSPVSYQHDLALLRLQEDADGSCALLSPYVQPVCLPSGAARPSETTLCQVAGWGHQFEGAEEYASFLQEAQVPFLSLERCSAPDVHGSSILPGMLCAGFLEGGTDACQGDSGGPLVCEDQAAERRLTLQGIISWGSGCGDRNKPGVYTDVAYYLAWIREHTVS

[11] = target: T4, G-protein coupled receptor 55; test: GPR55 agonists via beta-arrestin recruitment, primary screen, imaging, U2OS cells, beta-arrestin-GFP redistribution (AID 1961)

T1 sequence (Q9HC97 whole entry): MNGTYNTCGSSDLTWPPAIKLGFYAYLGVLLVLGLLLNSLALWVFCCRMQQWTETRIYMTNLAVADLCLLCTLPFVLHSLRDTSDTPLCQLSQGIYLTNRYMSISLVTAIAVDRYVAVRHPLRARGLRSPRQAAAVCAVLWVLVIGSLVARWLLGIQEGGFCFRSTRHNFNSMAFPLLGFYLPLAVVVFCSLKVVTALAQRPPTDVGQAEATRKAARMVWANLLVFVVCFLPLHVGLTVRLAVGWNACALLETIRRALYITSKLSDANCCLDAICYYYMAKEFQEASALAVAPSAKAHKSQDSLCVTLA

- EC50 [1]: > 32 µM (inactive)
- EC50 (Cannabinoid receptor 1 [2]): > 32 µM (inactive)
- IC50 (Cannabinoid receptor 2 [3]): > 32 µM (inactive)
- IC50 (Cannabinoid receptor 1 [4]): > 32 µM (inactive)
- EC50 [5]: > 32 µM (inactive)
- IC50 [6]: > 32 µM (inactive)
- EC50 (Cannabinoid receptor 2 [7]): > 32 µM (inactive)
SMILES: CC(C)Oc1ccc(S(=O)(=O)N2CCOCC2)cc1NC(=O)c1cc2ccccc2s1

SMILES: CCCC1(c2ccccc2)NC(=O)N(CC(=O)c2[nH]c(C)c(C(=O)OCC)c2C)C1=O (configuration not stated)
- EC50 [8]: 2.66 µM (active)
- EC50 [9]: > 20 µM (not active)
- EC50 [10]: > 20 µM (not active)

- IC50 (Coagulation factor XII): > 50 µM (inactive)
SMILES: Cc1c(C(=O)OCCOC(C)C)[nH]c2c1C(=O)CC(C)(C)C2

- EC50 [11]: 5.48 µM (active)
SMILES: COc1ccccc1OCC(=O)/C=C1/N(C)c2ccccc2C1(C)C
